Measurements from patent publication US6762326B2, “C2-substituted idan-1-ones and their derivatives, processes for their preparation and their use as pharmaceuticals” (Aventis Pharma Deutschland GmbH, priority 2001, dated 2004).

Tested on: female NMRI mice
Experiment: Anorectic action: cumulative evaporated milk consumption after 24 h feed removal
Assay type: in vivo
Conditions: versus control animals
Description: The anorectic action was tested on female NMRI mice. After removal of feed for 24 hours, the preparation to be tested was administered intraperitoneally (ip) or by gavage (po). The animals were housed singly and, with free access to drinking water, they were offered evaporated milk 30 minutes after administration of the preparation. The consumption of evaporated milk was determined and the general behavior of the animals was monitored every half an hour for 7 hours. The measured milk consumption was compared to that of vehicle-treated control animals.

CSC1Cc2cc(Cl)ccc2C1=O (stereo not drawn) [Example 1, 5-Chloro-2-methylsulfanylindan-1-one]
Reduction in cumulative milk consumption as % of the control (10 mg/kg ip): 64%

CS(=O)(=O)C1Cc2cc(Cl)ccc2C1=O (stereo not drawn) [Example 2, 5-Chloro-2-methanesulfonylindan-1-one]
Reduction in cumulative milk consumption as % of the control (20 mg/kg ip): 70%

C[S+]([O-])C1Cc2cc(Cl)ccc2C1=O (stereo not drawn) [Example 9, 5-chloro-2-methanesulfinylindan-1-one]
Reduction in cumulative milk consumption as % of the control (50 mg/kg po): 73%
